Results as given in US20130331427A1, “METHODS OF STIMULATING CELLULAR GROWTH, SYNAPTIC, REMODELING AND CONSOLIDATION OF LONG-TERM MEMORY” (Blanchette Rockefeller Neuroscience Institute, priority 2007, published 2013).
Where two headings read alike, the source gives them in different places.

Experiments:
PKC [1] = experiment: PKC affinity of bryostatin and bryologs; assay type: binding
From the text: Structurally, they are all similar.

PKC [2] = conditions: cited from earlier work
PKCε = target: T1, PKCε (Homo sapiens, UniProt Q02156); conditions: cited from earlier work
T1 sequence (Q02156 1-737): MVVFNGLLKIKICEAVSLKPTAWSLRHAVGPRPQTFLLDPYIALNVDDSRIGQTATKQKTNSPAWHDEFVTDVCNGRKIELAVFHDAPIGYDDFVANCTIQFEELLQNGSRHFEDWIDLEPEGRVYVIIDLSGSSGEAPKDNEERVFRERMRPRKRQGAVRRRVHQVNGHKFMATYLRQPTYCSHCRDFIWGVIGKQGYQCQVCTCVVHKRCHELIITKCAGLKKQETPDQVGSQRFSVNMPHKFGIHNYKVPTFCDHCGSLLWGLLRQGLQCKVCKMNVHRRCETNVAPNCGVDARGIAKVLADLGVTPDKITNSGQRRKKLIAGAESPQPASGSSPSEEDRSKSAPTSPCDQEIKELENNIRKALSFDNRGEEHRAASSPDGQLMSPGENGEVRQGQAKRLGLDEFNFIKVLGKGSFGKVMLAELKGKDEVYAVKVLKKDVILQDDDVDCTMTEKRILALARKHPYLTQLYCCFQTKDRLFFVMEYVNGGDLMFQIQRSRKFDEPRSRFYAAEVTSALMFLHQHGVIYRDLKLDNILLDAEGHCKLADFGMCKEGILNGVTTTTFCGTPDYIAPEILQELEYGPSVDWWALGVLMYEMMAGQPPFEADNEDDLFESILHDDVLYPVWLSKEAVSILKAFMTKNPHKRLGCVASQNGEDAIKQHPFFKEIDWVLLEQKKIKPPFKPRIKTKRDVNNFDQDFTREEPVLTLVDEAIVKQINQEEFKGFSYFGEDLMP

PKC [3] = conditions: K562 cells; cited from earlier work
[4] = system: cyclin dependent kinase 2 (Cdk2); conditions: at 5 ng/ml; cited from earlier work
[5] = system: murine leukemias and solid tumors; conditions: cited from earlier work
PKC [6] = conditions: [3H]phorbol dibutyrate competition; read-out: Ki for binding; cited from earlier work
[7] = system: squamous cell carcinoma and melanoma; conditions: used topically; cited from earlier work
NCI 60 cell line screen = conditions: cited from earlier work
Hermissenda Crassicornis = experiment: Pavlovian conditioning of Hermissenda, memory retention; assay type: in vivo
Procedure: Specimens of Hermissenda Crassicornis were maintained in artificial sea water (ASW) at 15° for three days in perforated 50-ml conical centrifuge tubes before starting experiments. […] For selected experiments lactacysteine (10 μM) or anisomycin was added to the ASW.
Pavlovian conditioning of Hermissenda involves repeated pairings of a neutral stimulus, light, with an unconditioned stimulus, orbital shaking. (See, Lederhendler et al. (24) and Epstein et al. (6)). A rotation/shaking stimulus excites the statocyst hair cells and thereby elicits an unconditioned response: a brisk contraction of the muscular undersurface called a foot, accompanied by adherence or “clinging” to the surface that supports the foot. Before conditioning, light elicits a weakly positive phototaxis accompanied by lengthening of the foot. After sufficient light-rotation pairings, light no longer elicits phototaxis, but instead elicits a new response (24): the “clinging” and foot shortening previously elicited only by the unconditional stimulus (FIG. 1). Thus, the meaning of the unconditioned stimulus, rotation or orbital shaking, has been transferred to the conditioned stimulus and is manifested by a light-elicited foot contraction—a negative change of foot length. This conditioned response to light can last for weeks, is not produced by randomized light and rotation, is stimulus-specific, and shares the other defining characteristics of mammalian Pavlovian Conditioning.
Pavlovian conditioning of Hermissenda has well-defined training parameters that produce progressively longer-lasting retention of the learned conditioned response. Two training events (2 TE) of paired light and orbital shaking (see “Methods”), for example, induce a learned conditioned response (light-elicited foot contraction or shortening) that persists without drug treatment for approximately 7 minutes. Four to six training events (4-6 TE) induce a conditioned response that persists up to several hours, but disappears approximately by 1 day after training. Nine TE produces long-term associative memory lasting many days and often up to two weeks.
All animals were tested with the CS alone at 4 h, then at 24-h intervals.

CA1 neurons = experiment: acute hippocampal slices, number of dendritic spines (spinophilin); assay type: cell-based; conditions: PKC blocker
calexcitin = calexcitin immunostaining in Hermissenda B-photoreceptors; assay type: in vivo
Procedure: Following experimental treatments and testing, animals were rapidly decapitated, the central nervous systems (CNS) removed and then fixed in 4% para-formaldehyde in 20 mM Tris-buffered (pH 8) natural seawater (NSW; 0.2 μm micropore-filtered). The CNSs were then embedded in polyester wax (20), sectioned (6 μm) and immunostained using a biotinylated secondary antibody coupled to avidin-bound microperoxidase (ABC method, Vector), Aminoethylcarbazole (AEC) was used as the chromogen. The primary polyclonal antibody (designated 25U2) was raised in rabbits from the full length calexcitin protein extracted from squid optic lobes. Gray-scale intensity measures were done from digital photomicrographs on circumscribed cytoplasmic areas of the B-photoreceptors minus the same background area (non-staining neuropile).
Micrographs (A, B) depict representative tissue sections from Hermissenda eyes that were immunolabeled with the calexcitin polyclonal antibody, 25U2. […] Differences in staining intensities were measured and recorded as gray-scale intensities (0-256; B-cell cytoplasm minus tissue background).

Rat IGF-IR cells = experiment: overall protein synthesis, [35S]methionine incorporation; conditions: PKC inhibitor also present
Procedure: [^35S]Methionine (9.1 μCi) was then added to the medium followed by analysis of radiolabel.

PKC [8] = experiment: PKC activity (histone phosphorylation) in Hermissenda nervous systems; assay type: in vivo; conditions: anisomycin 1.0 ng/ml with each bryostatin 0.25 ng/ml exposure, three successive days
Procedure: Cells were homogenized by sonication (5 sec, 25 W) in 100 μl of 100 mM Tris-HCL pH 7.4 buffer containing 1 mM EGTA, 1 mM PMSF, and 50 mM NaF. Homogenate was transferred to a polyallomer centrifuge tube and was centrifuged at 100,000×g for 10 min at 4°. The supernatant was removed and immediately frozen on dry ice. The particulate fraction was resuspended by sonication in 100 μl of the same buffer and stored at −80°. To measure PKC, 10 μl of cytosol or particulate fraction was incubated for 15 min at 37° in the presence of 10 μM histones, 4.89 mM CaCl2, 1.2 μg/μl phosphatidyl-L-serine, 0.18 μg/μl 1.2-dioctanoyl-sn-glycerol, 10 mM MgCl2, 20 mM HEPES (pH 7.4), 0-8 mM EDTA, 4 mM EGTA, 4% glycerol, 8 μg/ml aprotinin, 8 μg/ml leupeptin, and 2 mM benzamidine. 0.5 μCi [γ^32-P]ATP was added and ^32P-phosphoprotein formation was measured by adsorption onto phosphocellulose as described previously (25). This assay was used with slight adjustments for either Hermissenda nervous system homogenates or cultured mammalian neuron homogenates.
Histone phosphorylation (See “Methods”) in isolated circumesophageal nervous systems was then measured in the cytosol fraction. […] (FIG. 12, 13).

protein kinase C = conditions: (−)-enantiomer; cited from earlier work
sAPP secretion = conditions: control and AD fibroblasts; cited from earlier work
[9] = 2000 IU/day; cited from earlier work
[10] = A-ring bryologs, read-out: affinity for PKC

## CCCCCCCC(=O)O[C@H]1/C(=C/C(=O)OC)C[C@H]2C[C@H](CO)OC(=O)C[C@H](O)C[C@@H]3CCC[C@H](C[C@@H]4CCO[C@H](/C=C/C(C)(C)[C@]1(O)O2)O4)O3 [Analog 1]
PKC [1]
  potency relative to bryostatin-1: about 100 times
PKC [2]
  affinity for PKC, in words: highest affinity for PKC
PKC [2]; read-out: PKC Affin
  Ki: 0.25 nM

## CCCCCCCC(=O)O[C@H]1/C(=C/C(=O)OC)C[C@H]2C[C@H](CO)OC(=O)C[C@H](O)CCOCC[C@@H]3CCO[C@H](/C=C/C(C)(C)[C@]1(O)O2)O3 [Analog 2]
PKC [2]
  affinity for PKC, in words: maintains high affinity for PKC
PKC [2]; read-out: PKC Affin
  Ki: 6.5 nM

## CCCCCC1CC1CC1CC1CCCCCCCC(=O)O (stereo not drawn) [DCP-LA, 2-[(2-pentylcyclopropyl)methyl]cyclopropaneoctanoic acid]
PKCε
  concentration of maximal effect on PKCε: 100 nM

## C=C(C)[C@]12C[C@@H](COC(=O)c3ccccc3)[C@@]34OC5(O[C@@H]1[C@@H]3C1O[C@]1(CO)[C@@H](O)[C@@]1(O)[C@H]4[C@@H](C(C)CCCCCC[C@@H]5O)C(C)[C@@H]1OC(=O)c1ccccc1)O2 (stereo partly drawn) [Gnidimacrin]
PKC [3]
  concentration at which it acts as a PKC activator: 0.3 nM
[4]
  inhibition of Cdk2: 100%
[5]
  concentrations displaying potent antitumor activity: 0.1 to 1 nM

## CC1=C[C@]23C(=O)[C@@H](C=C(COC(=O)c4ccccc4)[C@@H](O)[C@]2(O)[C@H]1OC(=O)c1ccccc1)[C@H]1[C@@H](C[C@H]3C)C1(C)C [Ingenol 3,20-dibenzoate]
PKC [6]
  Ki: 240 nM

## C/C=C(/C)C(=O)O[C@H]1C(C)=C[C@]23C(=O)[C@@H](C=C(CO)[C@@H](O)[C@]12O)[C@H]1[C@@H](C[C@H]3C)C1(C)C [Ingenol-3-angelate]
[7]
  antitumor activity: possesses antitumor activity

## CC1=CC[C@H](C)C(C)(C)[C@@H]1/C=C/C(C)=C/CC[C@@]1(CO)[C@H](CCCO)/C(=C(/C)C=O)CC[C@]1(C)O [Iripallidal]
NCI 60 cell line screen
  GI50 (concentration required to inhibit growth by 50%): from micromolar to nanomolar range

## CC(=O)N[C@@H](CSC(=O)[C@]1([C@@H](O)C(C)C)NC(=O)[C@H](C)[C@@H]1O)C(=O)O [Lactacysteine]
Hermissenda Crassicornis; lactacysteine 10 μM alone for 4 h, 2-paired TEs 24 hrs later
  acquisition or retention of behavioral training: no acquisition or retention of behavioral training
Hermissenda Crassicornis; lactacysteine 10 μM together with bryostatin 0.25 ng/ml for 4 h
  memory after single bryostatin exposure followed by 2 TE: long-term memory lasting many days

## Cn1cc(C2=C(c3cn(CCCSC(=N)N)c4ccccc34)C(=O)NC2=O)c2ccccc21 [RO-31-8220]
CA1 neurons
  effect on bryostatin-induced ELAV transport and spine increase: suppressed

## CN(C)C[C@H]1CCn2c(c(C3=C(c4cn(C)c5ccccc45)C(=O)NC3=O)c3ccccc32)C1 [Ro-32]
Hermissenda Crassicornis; Ro-32 immediately after bryostatin plus training
  effect on long-term memory induction: did not prevent long-term memory induction
Hermissenda Crassicornis; applied pre-training during dark adaptation
  effect on 6 TE plus bryostatin: blocked
calexcitin; in vivo
  effect on learning-specific calexcitin increases in the Type B cell: prevented
Rat IGF-IR cells
  effect on bryostatin-induced increase of protein synthesis: partially blocked
Rat IGF-IR cells; listed as Ro-32-0432
  effect on bryostatin-induced increase of protein synthesis: increasing significantly less

## COc1ccc(C[C@H]2NC[C@H](O)[C@H]2OC(C)=O)cc1 [anisomycin]
Hermissenda Crassicornis; 4 hour anisomycin treatment, no bryostatin
  effect on memory retention produced by 9 TE: eliminated all memory retention
Hermissenda Crassicornis; anisomycin 1.0 μg/ml
  effect on memory from single 4 hour bryostatin exposure with 2 TE: entirely eliminated
Hermissenda Crassicornis; anisomycin 1 μg/ml for four hours post-training, 2-TEs
  effect on long-term retention after three-day bryostatin treatments: did not prevent long-term retention
PKC [8]
  effect on PKC activity, cytosolic and membrane fractions: markedly reduced
calexcitin; anisomycin immediately after 2-paired TEs, 3 days of 4-hr bryostatin
  effect on calexcitin level: did not reduce

## CCCCCCCC(=O)OC1C(=CC(=O)OC)CC2CC(CO)OC(=O)CC(O)CCOC(C(C)(C)C)CC3CCOC(C=CC(C)(C)C1(O)O2)O3 (stereo not drawn) [bryolog 3]
PKC [2]; [10]
  Ki: 6.5 nM

## CCCCCCCC(=O)OC1C(=CC(=O)OC)CC2CC(CO)OC(=O)CC(O)CCOC(c3ccccc3)CC3CCOC(C=CC(C)(C)C1(O)O2)O3 (stereo not drawn) [bryolog 4]
PKC [2]; [10]
  Ki: 2.3 nM

## CCCCCCCC(=O)OC1C(=CC(=O)OC)CC2CC(CO)OC(=O)CC(O)CCOC(CCCc3ccc(Br)cc3)CC3CCOC(C=CC(C)(C)C1(O)O2)O3 (stereo not drawn) [bryolog 5]
PKC [2]; [10]
  Ki: 1.9 nM

## COc1ccc2c(c[n+](C)c3c4cc5c(cc4ccc23)OCO5)c1OC [chelerythrine]
CA1 neurons
  effect on bryostatin-induced ELAV transport and spine increase: suppressed

## CCCCCCCCc1ccc2c3c(c[nH]c13)C[C@@H](CO)NC(=O)[C@H](C(C)C)N2C [octylindolactam V, Octylindolactam V]
Protein kinase C
  EC50: 29 nM

## CN[C@@H]1C[C@H]2O[C@@](C)([C@@H]1OC)n1c3ccccc3c3c4c(c5c6ccccc6n2c5c31)C(=O)NC4 [staurosporine]
sAPP secretion
  effect on benzolactam-induced sAPP secretion: eliminated the effects of benzolactam

## vitamin E
[9]
  cognitive abilities: did not enhance cognitive abilities
  mortality and morbidity: reduced mortality and morbidity
